# According to PubChem BioAssay AID2060488 (Molecular Pharmacology Branch, DTP, NCI, 2025):
# System: 966289-007-R4-J1-PDC complex spheroid viability
# Test: Anticancer human tumor 966289-007-R4-J1-PDC patient-derived pancreatic adenocarcinoma cell line growth inhibition [GQUAD]
# Conditions: for IC50: curve of first compound; for viability, T/C: stronger effect = lower value
# In short: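 Viability of tumor cells grown as complex spheroids with endothelial and stromal cells, exposed to drug combinations. Top concentration at or near clinical Cmax (else 10 microM), diluted in half-log increments.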
# [1] = second compound 0.0316 µM, first compound 0.0316 µM
# [2] = second compound 0.0316 µM, first compound 0.1 µM
# [3] = second compound 0.0316 µM, first compound 0.316 µM
# [4] = second compound 0.0316 µM, first compound 1 µM
# [5] = second compound 0.0316 µM, first compound 3.16 µM
# [6] = second compound 0.0316 µM, first compound 10 µM
# [7] = second compound 0.1 µM, first compound 0.0316 µM
# [8] = second compound 0.1 µM, first compound 0.1 µM
# [9] = second compound 0.1 µM, first compound 0.316 µM
# [10] = second compound 0.1 µM, first compound 1 µM
# [11] = second compound 0.1 µM, first compound 3.16 µM
# [12] = second compound 0.1 µM, first compound 10 µM
# [13] = second compound 0.316 µM, first compound 0.0316 µM
# [14] = second compound 0.316 µM, first compound 0.1 µM
# [15] = second compound 0.316 µM, first compound 0.316 µM
# [16] = second compound 0.316 µM, first compound 1 µM
# [17] = second compound 0.316 µM, first compound 3.16 µM
# [18] = second compound 0.316 µM, first compound 10 µM
# [19] = second compound 1 µM, first compound 0.0316 µM
# [20] = second compound 1 µM, first compound 0.1 µM
# [21] = second compound 1 µM, first compound 0.316 µM
# [22] = second compound 1 µM, first compound 1 µM
# [23] = second compound 1 µM, first compound 3.16 µM
# [24] = second compound 1 µM, first compound 10 µM
# [25] = second compound 3.16 µM, first compound 0.0316 µM
# [26] = second compound 3.16 µM, first compound 0.1 µM
# [27] = second compound 3.16 µM, first compound 0.316 µM
# [28] = second compound 3.16 µM, first compound 1 µM
# [29] = second compound 3.16 µM, first compound 3.16 µM
# [30] = second compound 3.16 µM, first compound 10 µM
# [31] = second compound 10 µM, first compound 0.0316 µM
# [32] = second compound 10 µM, first compound 0.1 µM
# [33] = second compound 10 µM, first compound 0.316 µM
# [34] = second compound 10 µM, first compound 1 µM
# [35] = second compound 10 µM, first compound 3.16 µM
# [36] = second compound 10 µM, first compound 10 µM
# 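Also: spheroids exposed to the agents for seven days before readout.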
# 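For viability, T/C in this document: percent viability relative to DMSO vehicle control wells taken as 100%.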
structure (smiles),measurement,setting,value
COc1cc(C2c3cc4c(cc3C(OC3OC5COC(C)OC5C(O)C3O)C3COC(=O)C23)OCO4)cc(OC)c1O (stereo not drawn) + Cc1cnc(CNC(=O)c2c(=O)c3ccc(N4CCCN(C)CC4)nc3n3c2sc2ccccc23)cn1,IC50,second compound 0.0316 µM,110 nM
same,IC50,second compound 0.1 µM,< 31.6 nM
same,IC50,second compound 0.316 µM,< 31.6 nM
same,IC50,second compound 1 µM,< 31.6 nM
same,IC50,second compound 3.16 µM,< 31.6 nM
same,IC50,second compound 10 µM,< 31.6 nM
same,"viability, T/C",[1],88%
same,"viability, T/C",[2],53.8%
same,"viability, T/C",[3],10.1%
same,"viability, T/C",[4],2.94%
same,"viability, T/C",[5],2.18%
same,"viability, T/C",[6],0.59%
same,"viability, T/C",[7],29.7%
same,"viability, T/C",[8],19.7%
same,"viability, T/C",[9],8.71%
same,"viability, T/C",[10],3.16%
same,"viability, T/C",[11],1.36%
same,"viability, T/C",[12],0.71%
same,"viability, T/C",[13],10.3%
same,"viability, T/C",[14],9.3%
same,"viability, T/C",[15],5.22%
same,"viability, T/C",[16],3.25%
same,"viability, T/C",[17],1.25%
same,"viability, T/C",[18],1.38%
same,"viability, T/C",[19],6.49%
same,"viability, T/C",[20],6.05%
same,"viability, T/C",[21],4.38%
same,"viability, T/C",[22],2.66%
same,"viability, T/C",[23],1.27%
same,"viability, T/C",[24],0.48%
same,"viability, T/C",[25],4.76%
same,"viability, T/C",[26],4.96%
same,"viability, T/C",[27],2.85%
same,"viability, T/C",[28],0.6%
same,"viability, T/C",[29],0.46%
same,"viability, T/C",[30],0.09%
same,"viability, T/C",[31],0.03%
same,"viability, T/C",[32],0.07%
same,"viability, T/C",[33],0.09%
same,"viability, T/C",[34],0.06%
same,"viability, T/C",[35],0.12%
same,"viability, T/C",[36],0.12%
Nc1ccn(C2OC(CO)C(O)C2(F)F)c(=O)n1 (stereo not drawn) + Cc1cnc(CNC(=O)c2c(=O)c3ccc(N4CCCN(C)CC4)nc3n3c2sc2ccccc23)cn1,IC50,second compound 0.0316 µM,< 31.6 nM
same,IC50,second compound 0.1 µM,< 31.6 nM
same,IC50,second compound 0.316 µM,< 31.6 nM
same,IC50,second compound 1 µM,< 31.6 nM
same,IC50,second compound 3.16 µM,< 31.6 nM
same,IC50,second compound 10 µM,< 31.6 nM
same,"viability, T/C",[1],2.51%
same,"viability, T/C",[2],0.72%
same,"viability, T/C",[3],0.68%
same,"viability, T/C",[4],0.69%
same,"viability, T/C",[5],0.58%
same,"viability, T/C",[6],0.61%
same,"viability, T/C",[7],4.19%
same,"viability, T/C",[8],0.89%
same,"viability, T/C",[9],0.87%
same,"viability, T/C",[10],0.9%
same,"viability, T/C",[11],0.77%
same,"viability, T/C",[12],0.88%
same,"viability, T/C",[13],5.63%
same,"viability, T/C",[14],1.42%
same,"viability, T/C",[15],1.15%
same,"viability, T/C",[16],0.95%
same,"viability, T/C",[17],1.35%
same,"viability, T/C",[18],1.02%
same,"viability, T/C",[19],3.58%
same,"viability, T/C",[20],1.01%
same,"viability, T/C",[21],0.82%
same,"viability, T/C",[22],0.79%
same,"viability, T/C",[23],0.88%
same,"viability, T/C",[24],0.78%
same,"viability, T/C",[25],2.86%
same,"viability, T/C",[26],0.11%
same,"viability, T/C",[27],0.1%
same,"viability, T/C",[28],0.06%
same,"viability, T/C",[29],0.32%
same,"viability, T/C",[30],0.67%
same,"viability, T/C",[31],0.04%
same,"viability, T/C",[32],0.07%
same,"viability, T/C",[33],0.09%
same,"viability, T/C",[34],0.07%
same,"viability, T/C",[35],0.92%
same,"viability, T/C",[36],0.6%
O=C(NO)c1cnc(N2CCN(S(=O)(=O)c3ccc4ccccc4c3)CC2)nc1 + Cc1cnc(CNC(=O)c2c(=O)c3ccc(N4CCCN(C)CC4)nc3n3c2sc2ccccc23)cn1,IC50,second compound 0.0316 µM,209 nM
same,IC50,second compound 0.1 µM,< 31.6 nM
same,IC50,second compound 0.316 µM,< 31.6 nM
same,IC50,second compound 1 µM,< 31.6 nM
same,IC50,second compound 3.16 µM,< 31.6 nM
same,IC50,second compound 10 µM,< 31.6 nM
same,"viability, T/C",[1],96.4%
same,"viability, T/C",[2],87.3%
same,"viability, T/C",[3],28.8%
same,"viability, T/C",[4],8.77%
same,"viability, T/C",[5],2.84%
same,"viability, T/C",[6],0.33%
same,"viability, T/C",[7],31.3%
same,"viability, T/C",[8],31.9%
same,"viability, T/C",[9],10.8%
same,"viability, T/C",[10],4.55%
same,"viability, T/C",[11],2.02%
same,"viability, T/C",[12],0.31%
same,"viability, T/C",[13],7.24%
same,"viability, T/C",[14],5.47%
same,"viability, T/C",[15],3.67%
same,"viability, T/C",[16],2.76%
same,"viability, T/C",[17],1.03%
same,"viability, T/C",[18],0.05%
same,"viability, T/C",[19],4.18%
same,"viability, T/C",[20],2.98%
same,"viability, T/C",[21],3.68%
same,"viability, T/C",[22],0.86%
same,"viability, T/C",[23],0.32%
same,"viability, T/C",[24],0.05%
same,"viability, T/C",[25],1.88%
same,"viability, T/C",[26],2.14%
same,"viability, T/C",[27],0.08%
same,"viability, T/C",[28],0.05%
same,"viability, T/C",[29],0.06%
same,"viability, T/C",[30],0.1%
same,"viability, T/C",[31],0.03%
same,"viability, T/C",[32],0.09%
same,"viability, T/C",[33],0.1%
same,"viability, T/C",[34],0.09%
same,"viability, T/C",[35],0.53%
same,"viability, T/C",[36],0.23%
O=c1[nH]cc(F)c(=O)[nH]1 + Cc1cnc(CNC(=O)c2c(=O)c3ccc(N4CCCN(C)CC4)nc3n3c2sc2ccccc23)cn1,IC50,second compound 0.0316 µM,152 nM
same,IC50,second compound 0.1 µM,< 31.6 nM
same,IC50,second compound 0.316 µM,< 31.6 nM
same,IC50,second compound 1 µM,< 31.6 nM
same,IC50,second compound 3.16 µM,< 31.6 nM
same,IC50,second compound 10 µM,< 31.6 nM
same,"viability, T/C",[1],110%
same,"viability, T/C",[2],70.7%
same,"viability, T/C",[3],13.4%
same,"viability, T/C",[4],6.62%
same,"viability, T/C",[5],6.16%
same,"viability, T/C",[6],7.17%
same,"viability, T/C",[7],35.3%
same,"viability, T/C",[8],38.2%
same,"viability, T/C",[9],16.7%
same,"viability, T/C",[10],9.09%
same,"viability, T/C",[11],8.85%
same,"viability, T/C",[12],9.1%
same,"viability, T/C",[13],11%
same,"viability, T/C",[14],14.4%
same,"viability, T/C",[15],13.6%
same,"viability, T/C",[16],10.8%
same,"viability, T/C",[17],10.2%
same,"viability, T/C",[18],12.7%
same,"viability, T/C",[19],6.94%
same,"viability, T/C",[20],8.36%
same,"viability, T/C",[21],9.57%
same,"viability, T/C",[22],9.08%
same,"viability, T/C",[23],8.58%
same,"viability, T/C",[24],8.28%
same,"viability, T/C",[25],4.97%
same,"viability, T/C",[26],5.62%
same,"viability, T/C",[27],7.29%
same,"viability, T/C",[28],6.64%
same,"viability, T/C",[29],6.67%
same,"viability, T/C",[30],8.36%
same,"viability, T/C",[31],0.04%
same,"viability, T/C",[32],0.08%
same,"viability, T/C",[33],2.48%
same,"viability, T/C",[34],0.28%
same,"viability, T/C",[35],2.43%
same,"viability, T/C",[36],0.18%
